Results from patent US7612200B2, “Inhibitors of protein kinases” (Locus Pharmaceuticals, Inc., priority 2004, dated 2009).

Tests used:
Type in all cases: biochemical
DDR2 = DDR2 (Homo sapiens, UniProt Q16832); assay: Protein kinase inhibition, DDR2; conditions: Rate (μM) 2, read-out: % Control
TrkB = TrkB (Homo sapiens, UniProt Q16620); assay: TrkB Kinase Activity
Protocol: TrkB Kinase Activity: In a final reaction volume of 25 μl, TrkB (h) (5-10 mU) is incubated with 8 mM MOPS pH 7.0, 0.2 mM EDTA, 0.1 mg/ml poly(Glu, Tyr) 4:1, 10 mM MgAcetate and [γ-^33P-ATP] (specific activity approx. 500 cpm/pmol, concentration as required). The reaction is initiated by the addition of the MgATP mix. After incubation for 40 minutes at room temperature, the reaction is stopped by the addition of 5 μl of a 3% phosphoric acid solution. 10 μl of the reaction is then spotted onto a Filtermat A and washed three times for 5 minutes in 75 mM phosphoric acid and once in methanol prior to drying and scintillation counting.

p38β = p38β (Homo sapiens, UniProt Q15759); assay: SAPK2b Kinase Activity (p38β); conditions: compound at 2 μm
Protocol: SAPK2b Kinase Activity: In a final reaction volume of 25 μl, SAPK2b (h) (5-10 mU) is incubated with 25 mM Tris pH 7.5, 0.02 mM EGTA, 0.33 mg/ml myelin basic protein, 10 mM MgAcetate and [γ-^33P-ATP] (specific activity approx. 500 cpm/pmol, concentration as required). The reaction is initiated by the addition of the MgATP mix. After incubation for 40 minutes at room temperature, the reaction is stopped by the addition of 5 μl of a 3% phosphoric acid solution. 10 μl of the reaction is the spotted onto a P30 filtermat and washed three times for 5 minutes in 75 mM phosphoric acid and once in methanol prior to drying and scintillation counting.

TrkB, sequence (Q16620 32-822): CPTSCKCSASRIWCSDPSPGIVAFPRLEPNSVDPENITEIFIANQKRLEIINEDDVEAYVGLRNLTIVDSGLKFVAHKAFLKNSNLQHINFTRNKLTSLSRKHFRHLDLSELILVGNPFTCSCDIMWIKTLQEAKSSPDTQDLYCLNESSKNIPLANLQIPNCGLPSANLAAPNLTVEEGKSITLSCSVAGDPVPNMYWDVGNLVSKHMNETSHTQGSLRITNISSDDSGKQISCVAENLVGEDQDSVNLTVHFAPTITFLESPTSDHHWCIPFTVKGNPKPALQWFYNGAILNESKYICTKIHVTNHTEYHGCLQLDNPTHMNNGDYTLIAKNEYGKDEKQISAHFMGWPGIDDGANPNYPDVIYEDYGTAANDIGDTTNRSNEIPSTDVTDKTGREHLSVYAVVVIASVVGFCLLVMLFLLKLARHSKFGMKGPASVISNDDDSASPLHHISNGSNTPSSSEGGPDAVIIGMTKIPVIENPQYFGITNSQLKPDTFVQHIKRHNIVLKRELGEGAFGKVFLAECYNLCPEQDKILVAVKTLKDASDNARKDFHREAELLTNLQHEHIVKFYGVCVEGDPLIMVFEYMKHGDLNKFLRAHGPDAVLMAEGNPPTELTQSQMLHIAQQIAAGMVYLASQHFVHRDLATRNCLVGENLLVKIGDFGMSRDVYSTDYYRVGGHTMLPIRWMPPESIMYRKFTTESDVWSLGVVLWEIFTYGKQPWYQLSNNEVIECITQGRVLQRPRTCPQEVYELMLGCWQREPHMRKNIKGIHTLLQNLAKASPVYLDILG
p38β, sequence (Q15759 whole entry): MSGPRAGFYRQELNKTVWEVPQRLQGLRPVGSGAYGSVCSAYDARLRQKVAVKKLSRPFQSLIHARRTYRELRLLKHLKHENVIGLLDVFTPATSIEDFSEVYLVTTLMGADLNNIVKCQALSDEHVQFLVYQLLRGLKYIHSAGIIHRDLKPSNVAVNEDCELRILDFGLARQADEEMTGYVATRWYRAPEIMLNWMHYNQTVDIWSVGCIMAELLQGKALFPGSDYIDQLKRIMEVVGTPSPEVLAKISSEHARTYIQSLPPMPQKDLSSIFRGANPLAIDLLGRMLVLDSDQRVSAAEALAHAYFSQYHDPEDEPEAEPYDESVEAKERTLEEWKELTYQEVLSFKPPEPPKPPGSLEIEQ
DDR2, sequence (Q16832 22-855): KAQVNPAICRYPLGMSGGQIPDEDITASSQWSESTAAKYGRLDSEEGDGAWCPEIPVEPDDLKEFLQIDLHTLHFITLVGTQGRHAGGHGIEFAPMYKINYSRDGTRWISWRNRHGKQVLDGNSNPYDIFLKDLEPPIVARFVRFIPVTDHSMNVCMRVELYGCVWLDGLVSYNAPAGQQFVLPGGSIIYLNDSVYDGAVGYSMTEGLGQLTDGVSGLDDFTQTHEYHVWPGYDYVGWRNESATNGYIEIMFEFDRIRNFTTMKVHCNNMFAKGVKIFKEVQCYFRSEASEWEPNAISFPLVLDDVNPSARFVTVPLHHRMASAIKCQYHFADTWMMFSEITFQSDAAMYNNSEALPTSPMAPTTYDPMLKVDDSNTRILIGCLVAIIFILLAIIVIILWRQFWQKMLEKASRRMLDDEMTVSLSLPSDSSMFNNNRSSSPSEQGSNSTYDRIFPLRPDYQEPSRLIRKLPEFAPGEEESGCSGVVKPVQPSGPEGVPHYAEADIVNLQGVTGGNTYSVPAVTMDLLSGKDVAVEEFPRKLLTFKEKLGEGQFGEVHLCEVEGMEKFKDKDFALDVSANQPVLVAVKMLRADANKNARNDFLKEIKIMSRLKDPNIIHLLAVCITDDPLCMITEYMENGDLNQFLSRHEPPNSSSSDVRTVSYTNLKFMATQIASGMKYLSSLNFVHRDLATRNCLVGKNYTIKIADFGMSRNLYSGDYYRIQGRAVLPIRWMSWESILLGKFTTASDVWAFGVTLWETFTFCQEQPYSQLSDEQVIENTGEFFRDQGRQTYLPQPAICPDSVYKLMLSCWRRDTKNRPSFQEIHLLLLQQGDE

remaining activity at 2 µM (DDR2): 76 to 100%
remaining activity at 2 µM (TrkB; 40 min, Human, Rate (μM) 2, read-out: % Control): 76 to 100%
% Inhibition at 2 μm (TrkB; compound at 2 μm): 76-100%
% Inhibition at 2 μm (p38β): 76-100%
SMILES: CC(C)(C)c1cc(C(=O)N2CCS(=O)(=O)CC2)c(NC(=O)Nc2ccc(Oc3ccncc3)cc2)s1 [Example 3, 1-[5-tert-Butyl-3-(1,1-dioxo-1λ^6-thiomorpholine-4-carbonyl)thiophen-2-yl]-3-[4-(pyridin-4-yloxy)phenyl]urea]
